The results in this text go back to patent US12065436B2, “Cardiac sarcomere inhibitors” (Cytokinetics, Inc., priority 2018, dated 2024).

pIC50: −log10 of the molar value.

The target of this assay is bovine cardiac myofibrils (full-length cardiac myosin ATPase in the native sarcomere) (Bos taurus (Bovine), UniProt Q9BE39). The experiment in a line: Skinned bovine cardiac myofibril ATPase assay (PK/LDH-coupled). The class given is biochemical. Conditions: Ca2+ activating to 75% of maximal rate; for CDMF75 IC15: concentration giving 15% inhibition; for pIC50: read-out: CDMF75 IC50. In short, it runs like this: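 Inhibition of steady-state ATPase read at 340 nm through a PK/LDH-coupled NADH system (0.5 mM NADH, 1.5 mM PEP). Detergent-skinned bovine cardiac myofibrils, 1 mg/mL, were tested at pH 6.8 in PIPES/MgCl2 with 50 μM ATP and calcium adjusted to give pCa50 or pCa75 activation.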
bovine cardiac myofibrils (full-length cardiac myosin ATPase in the native sarcomere), sequence (Q9BE39 whole entry): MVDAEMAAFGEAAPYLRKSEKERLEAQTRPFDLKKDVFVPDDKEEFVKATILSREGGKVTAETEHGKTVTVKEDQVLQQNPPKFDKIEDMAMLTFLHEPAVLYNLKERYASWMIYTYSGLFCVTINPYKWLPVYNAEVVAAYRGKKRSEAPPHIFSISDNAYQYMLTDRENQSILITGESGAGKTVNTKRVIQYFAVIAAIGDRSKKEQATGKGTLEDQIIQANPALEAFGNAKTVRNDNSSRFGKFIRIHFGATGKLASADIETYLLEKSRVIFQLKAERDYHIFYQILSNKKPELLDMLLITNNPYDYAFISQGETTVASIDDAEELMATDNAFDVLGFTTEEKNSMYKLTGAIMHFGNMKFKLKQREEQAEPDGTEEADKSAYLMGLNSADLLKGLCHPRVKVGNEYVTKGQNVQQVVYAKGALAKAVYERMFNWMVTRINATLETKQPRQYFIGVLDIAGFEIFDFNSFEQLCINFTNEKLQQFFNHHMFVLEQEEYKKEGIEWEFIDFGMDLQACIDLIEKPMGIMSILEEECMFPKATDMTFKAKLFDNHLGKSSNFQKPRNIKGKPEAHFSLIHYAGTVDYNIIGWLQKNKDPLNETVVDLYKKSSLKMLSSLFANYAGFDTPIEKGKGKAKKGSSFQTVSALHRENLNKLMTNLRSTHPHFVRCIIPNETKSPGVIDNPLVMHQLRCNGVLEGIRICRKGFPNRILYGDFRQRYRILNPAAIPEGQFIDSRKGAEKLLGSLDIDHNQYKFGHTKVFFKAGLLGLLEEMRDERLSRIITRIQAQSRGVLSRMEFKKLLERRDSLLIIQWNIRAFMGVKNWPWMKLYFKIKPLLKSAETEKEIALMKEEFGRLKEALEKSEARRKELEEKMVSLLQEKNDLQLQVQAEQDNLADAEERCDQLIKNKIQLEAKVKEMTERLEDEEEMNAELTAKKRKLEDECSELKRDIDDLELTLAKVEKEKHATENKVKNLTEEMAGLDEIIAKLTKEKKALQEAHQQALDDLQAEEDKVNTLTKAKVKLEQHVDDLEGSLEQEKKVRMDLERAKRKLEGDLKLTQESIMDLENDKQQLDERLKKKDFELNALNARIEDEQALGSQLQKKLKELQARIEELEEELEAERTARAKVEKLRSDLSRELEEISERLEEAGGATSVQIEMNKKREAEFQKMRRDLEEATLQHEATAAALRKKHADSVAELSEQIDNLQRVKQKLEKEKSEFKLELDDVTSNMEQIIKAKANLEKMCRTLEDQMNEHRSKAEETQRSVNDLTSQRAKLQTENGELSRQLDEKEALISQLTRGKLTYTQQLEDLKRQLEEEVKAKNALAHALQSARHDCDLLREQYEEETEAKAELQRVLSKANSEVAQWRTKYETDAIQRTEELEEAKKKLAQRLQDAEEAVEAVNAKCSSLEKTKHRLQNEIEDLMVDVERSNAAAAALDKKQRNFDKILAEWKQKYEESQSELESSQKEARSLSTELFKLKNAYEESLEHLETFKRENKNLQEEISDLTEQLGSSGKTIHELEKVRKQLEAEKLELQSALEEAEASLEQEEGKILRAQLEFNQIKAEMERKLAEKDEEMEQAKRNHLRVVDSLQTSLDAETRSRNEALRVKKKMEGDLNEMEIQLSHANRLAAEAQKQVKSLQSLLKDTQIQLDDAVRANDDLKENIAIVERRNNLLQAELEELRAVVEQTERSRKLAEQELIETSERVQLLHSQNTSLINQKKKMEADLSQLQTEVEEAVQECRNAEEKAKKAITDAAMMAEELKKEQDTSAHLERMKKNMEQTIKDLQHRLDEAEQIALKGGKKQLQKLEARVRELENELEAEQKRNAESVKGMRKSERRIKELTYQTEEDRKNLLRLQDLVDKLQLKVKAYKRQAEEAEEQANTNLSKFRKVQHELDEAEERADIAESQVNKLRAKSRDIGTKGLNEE
bovine cardiac myofibrils (full-length cardiac myosin ATPase in the native sarcomere), sequence (P85100 whole entry partner): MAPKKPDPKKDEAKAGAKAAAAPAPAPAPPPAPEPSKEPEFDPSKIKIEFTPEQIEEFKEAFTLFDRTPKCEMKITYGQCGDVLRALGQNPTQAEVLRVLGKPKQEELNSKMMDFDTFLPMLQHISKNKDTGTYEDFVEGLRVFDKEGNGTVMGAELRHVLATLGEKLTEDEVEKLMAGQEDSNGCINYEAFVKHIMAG
bovine cardiac myofibrils (full-length cardiac myosin ATPase in the native sarcomere), sequence (Q3SZE5 whole entry partner): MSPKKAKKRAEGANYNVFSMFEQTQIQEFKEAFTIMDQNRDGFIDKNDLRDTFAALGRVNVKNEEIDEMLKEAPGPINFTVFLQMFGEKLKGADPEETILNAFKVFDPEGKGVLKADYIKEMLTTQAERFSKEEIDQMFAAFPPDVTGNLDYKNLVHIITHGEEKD

For `COCc1nc(-c2ccc3c(c2)CC[C@H]3NC(=O)c2cccc(CO)c2F)no1` [Compound 670, (R)-2-fluoro-3-(hydroxymethyl)-N-(5-(5-(methoxymethyl)-1,2,4-oxadiazol-3-yl)-2,3-dihydro-1H-inden-1-yl)benzamide], the “CDMF75 IC15” value was 5800 nM and the negative-log IC50 (pIC50) – broadly, −log10 of the IC50, conventionally taken in molar units – was 4.58.

As for `Cc1c(C(=O)N[C@@H]2CCc3cc(-c4noc(C5CCC5)n4)ccc32)cnn1C` [Compound 151, (R)-N-(5-(5-cyclobutyl-1,2,4-oxadiazol-3-yl)-2,3-dihydro-1H-inden-1-yl)-1,5-dimethyl-1H-pyrazole-4-carboxamide], the “CDMF75 IC15” value is 500 nM and the pIC50 was 5.70.

Turning to `Cc1cc(C(=O)N[C@@H]2CCc3cc(-c4nc(C)no4)ccc32)n(C)n1` [Compound 194, (R)-1,3-dimethyl-N-(5-(3-methyl-1,2,4-oxadiazol-5-yl)-2,3-dihydro-1H-inden-1-yl)-1H-pyrazole-5-carboxamide], the “CDMF75 IC15” value is 700 nM and the pIC50 was 5.59.

Regarding `Cn1nccc1C(=O)N[C@@H]1CCc2cc(-c3cnccn3)ccc21` [Compound 368, (R)-1-methyl-N-(5-(pyrazin-2-yl)-2,3-dihydro-1H-inden-1-yl)-1H-pyrazole-5-carboxamide], the “CDMF75 IC15” value is 17600 nM and the pIC50 is below 4.41.

For the compound `COCCCn1cc(C(=O)N[C@@H]2CCc3cc(-c4noc(C5CC5)n4)ccc32)cn1` [Compound 600, (R)-N-(5-(5-cyclopropyl-1,2,4-oxadiazol-3-yl)-2,3-dihydro-1H-inden-1-yl)-1-(3-methoxypropyl)-1H-pyrazole-4-carboxamide], the “CDMF75 IC15” value was 3500 nM and the pIC50 is 4.78.

On to `Cc1cc(C(=O)N[C@@H]2CCc3cc(-c4noc(C(F)F)n4)ccc32)cnn1` [Compound 687, (R)-N-(5-(5-(difluoromethyl)-1,2,4-oxadiazol-3-yl)-2,3-dihydro-1H-inden-1-yl)-6-methylpyridazine-4-carboxamide], for which the “CDMF75 IC15” value stood at 1000 nM and the pIC50 was 5.36.

Take `[2H]C([2H])([2H])c1nc(-c2ccc3c(c2)CC[C@H]3NC(=O)c2cnn(CCO)c2)no1` [Compound 519, (R)-1-(2-hydroxyethyl)-N-(5-(5-(methyl-d3)-1,2,4-oxadiazol-3-yl)-2,3-dihydro-1H-inden-1-yl)-1H-pyrazole-4-carboxamide]: the “CDMF75 IC15” value was found to be 1900 nM and the negative logarithm of the IC50 (pIC50) was 5.06.

In the case of `Cc1cc(-c2ccc3c(c2)CC[C@H]3NC(=O)c2ccnn2C)cnn1` [Compound 384, (R)-1-methyl-N-(5-(6-methylpyridazin-4-yl)-2,3-dihydro-1H-inden-1-yl)-1H-pyrazole-5-carboxamide], the “CDMF75 IC15” value is 39200 nM and the pIC50 is below 4.41.

`Cn1nnc(C(=O)N[C@@H]2COc3cc(-c4noc(C(F)F)n4)ccc32)n1` [Compound 198, (S)-N-(6-(5-(difluoromethyl)-1,2,4-oxadiazol-3-yl)-2,3-dihydrobenzofuran-3-yl)-2-methyl-2H-tetrazole-5-carboxamide]: the “CDMF75 IC15” value came to 2000 nM and the pIC50 is 5.14.

As for `CCc1nc(-c2ccc3c(c2)CC[C@H]3NC(=O)c2cnn(C)c2C)no1` [Compound 570, (R)-N-(5-(5-ethyl-1,2,4-oxadiazol-3-yl)-2,3-dihydro-1H-inden-1-yl)-1,5-dimethyl-1H-pyrazole-4-carboxamide], the “CDMF75 IC15” value is 400 nM and the pIC50 was 5.85.

In the case of `CCc1nc(-c2ccc3c(c2)CC[C@H]3NC(=O)OCC2COC2)no1` [Compound 358, oxetan-3-ylmethyl (R)-(5-(5-ethyl-1,2,4-oxadiazol-3-yl)-2,3-dihydro-1H-inden-1-yl)carbamate], the “CDMF75 IC15” value was determined as 600 nM and the negative logarithm of the IC50 (pIC50) is 5.66.

Take `CCc1nc(-c2ccc3c(c2)CC[C@H]3NC(=O)c2ccc(=O)n(CCOC)c2)no1` [Compound 606, (R)-N-(5-(5-ethyl-1,2,4-oxadiazol-3-yl)-2,3-dihydro-1H-inden-1-yl)-1-(2-methoxyethyl)-6-oxo-1,6-dihydropyridine-3-carboxamide]: the “CDMF75 IC15” value worked out at 4600 nM and the negative logarithm of the IC50 (pIC50) is 4.65.

For `Cc1oncc1C(=O)N[C@@H]1CCc2cc(-c3noc(C(F)F)n3)ccc21` [Compound 72, (R)-N-(5-(5-(difluoromethyl)-1,2,4-oxadiazol-3-yl)-2,3-dihydro-1H-inden-1-yl)-5-methylisoxazole-4-carboxamide], the “CDMF75 IC15” value came to 300 nM and the negative-log IC50 (pIC50) is 6.00.

With `COC(=O)N[C@@H]1COc2cc(-c3noc(C4CC4)n3)ccc21` [Compound 348, methyl (S)-(6-(5-cyclopropyl-1,2,4-oxadiazol-3-yl)-2,3-dihydrobenzofuran-3-yl)carbamate], the “CDMF75 IC15” value is 500 nM and the pIC50 is 5.74.

Take `Cc1cc(C(=O)N[C@@H]2CCc3cc(-c4nc(C(F)F)no4)ccc32)n(C)n1` [Compound 213, (R)-N-(5-(3-(difluoromethyl)-1,2,4-oxadiazol-5-yl)-2,3-dihydro-1H-inden-1-yl)-1,3-dimethyl-1H-pyrazole-5-carboxamide]: the “CDMF75 IC15” value is 1200 nM and the pIC50 is 5.33.

On to `COCc1nc(-c2ccc3c(c2)CC[C@H]3NC(=O)c2cccc(C(C)O)c2)no1` (stereo partly drawn) [Compound 722, 3-(1-hydroxyethyl)-N-((R)-5-(5-(methoxymethyl)-1,2,4-oxadiazol-3-yl)-2,3-dihydro-1H-inden-1-yl)benzamide], for which the “CDMF75 IC15” value was 1400 nM and the negative logarithm of the IC50 (pIC50) is 5.25.

With `COCCOC(=O)N[C@@H]1CCc2cc(-c3noc(C4CC4)n3)ccc21` [Compound 327, 2-methoxyethyl (R)-(5-(5-cyclopropyl-1,2,4-oxadiazol-3-yl)-2,3-dihydro-1H-inden-1-yl)carbamate], the “CDMF75 IC15” value is 1800 nM and the pIC50 was 5.09.

Regarding `Cc1nc(-c2ccc3c(c2)CC[C@H]3NC(=O)c2ccnc(C(F)F)c2)no1` [Compound 730, (R)-2-(difluoromethyl)-N-(5-(5-methyl-1,2,4-oxadiazol-3-yl)-2,3-dihydro-1H-inden-1-yl)isonicotinamide], the “CDMF75 IC15” value is 700 nM and the pIC50 was 5.49.

`CCc1nc(-c2ccc3c(c2)CC[C@H]3NC(=O)c2cccc(C(C)O)c2)no1` (stereo partly drawn) [Compound 715, N-((R)-5-(5-ethyl-1,2,4-oxadiazol-3-yl)-2,3-dihydro-1H-inden-1-yl)-3-(1-hydroxyethyl)benzamide]: the “CDMF75 IC15” value is 400 nM and the negative logarithm of the IC50 (pIC50) was 5.82.

For the compound `Cc1cc(C(=O)NC2CCc3cc(-c4nc(C)no4)ccc32)ccn1` (stereo not drawn) [Compound 130, 2-methyl-N-(5-(3-methyl-1,2,4-oxadiazol-5-yl)-2,3-dihydro-1H-inden-1-yl)isonicotinamide], the “CDMF75 IC15” value is 2500 nM and the negative-log IC50 (pIC50) is 4.99.

For `CCc1nc(-c2ccc3c(c2)OC[C@H]3NC(=O)c2conc2C)no1` [Compound 340, (S)-N-(6-(5-ethyl-1,2,4-oxadiazol-3-yl)-2,3-dihydrobenzofuran-3-yl)-3-methylisoxazole-4-carboxamide], the “CDMF75 IC15” value came to 300 nM and the negative-log IC50 (pIC50) is 6.15.
